Experimental data: patent EP1785423A1, “Pyridopyrazine derivatives and their use as kinase modulators” (Zentaris GmbH, priority 2005, dated 2007)

How the values were obtained:
PI3Kalpha = target: T1, PI3Kalpha (Homo sapiens, UniProt P42336); experiment: Cell-free kinase assay PI3K-ALPHA (ALPHA technology); format: biochemical; conditions: 100µM ATP
T1 construct: teils als Volllängenkinasen, teils als verkürzte Fragmente - mindestens aber bestehend aus der funktionellen Kinasedomäne; purchased Upstate 14-602
T1 sequence (P42336 whole entry, the tested form may be a part): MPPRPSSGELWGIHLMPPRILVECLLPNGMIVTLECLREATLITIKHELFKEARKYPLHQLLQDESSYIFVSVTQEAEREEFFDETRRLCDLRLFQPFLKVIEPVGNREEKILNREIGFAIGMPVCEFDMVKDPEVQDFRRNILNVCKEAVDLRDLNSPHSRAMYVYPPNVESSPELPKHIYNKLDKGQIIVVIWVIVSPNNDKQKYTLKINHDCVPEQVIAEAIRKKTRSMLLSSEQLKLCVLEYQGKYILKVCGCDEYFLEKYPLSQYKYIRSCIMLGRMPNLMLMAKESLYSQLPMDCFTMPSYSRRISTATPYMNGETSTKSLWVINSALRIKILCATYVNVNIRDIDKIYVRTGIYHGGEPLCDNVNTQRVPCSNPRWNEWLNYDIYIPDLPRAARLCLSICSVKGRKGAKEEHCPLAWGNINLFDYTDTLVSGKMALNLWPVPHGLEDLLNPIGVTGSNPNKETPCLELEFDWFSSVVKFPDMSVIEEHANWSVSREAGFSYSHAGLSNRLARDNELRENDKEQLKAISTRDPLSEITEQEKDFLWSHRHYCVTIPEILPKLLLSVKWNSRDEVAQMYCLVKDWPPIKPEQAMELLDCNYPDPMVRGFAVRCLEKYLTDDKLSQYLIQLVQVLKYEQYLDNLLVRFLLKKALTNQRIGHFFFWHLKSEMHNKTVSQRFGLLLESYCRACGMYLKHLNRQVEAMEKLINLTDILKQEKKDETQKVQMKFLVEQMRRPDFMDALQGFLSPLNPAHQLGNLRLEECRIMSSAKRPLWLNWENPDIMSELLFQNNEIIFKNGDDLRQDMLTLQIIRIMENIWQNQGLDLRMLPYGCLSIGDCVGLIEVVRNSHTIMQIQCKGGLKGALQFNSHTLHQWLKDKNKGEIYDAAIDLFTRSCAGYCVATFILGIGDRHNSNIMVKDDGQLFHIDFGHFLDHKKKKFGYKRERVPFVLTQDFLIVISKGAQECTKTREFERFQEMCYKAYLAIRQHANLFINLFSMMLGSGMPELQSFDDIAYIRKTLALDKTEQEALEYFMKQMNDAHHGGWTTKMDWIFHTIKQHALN
T1 sequence (P27986 whole entry partner, the tested form may be a part): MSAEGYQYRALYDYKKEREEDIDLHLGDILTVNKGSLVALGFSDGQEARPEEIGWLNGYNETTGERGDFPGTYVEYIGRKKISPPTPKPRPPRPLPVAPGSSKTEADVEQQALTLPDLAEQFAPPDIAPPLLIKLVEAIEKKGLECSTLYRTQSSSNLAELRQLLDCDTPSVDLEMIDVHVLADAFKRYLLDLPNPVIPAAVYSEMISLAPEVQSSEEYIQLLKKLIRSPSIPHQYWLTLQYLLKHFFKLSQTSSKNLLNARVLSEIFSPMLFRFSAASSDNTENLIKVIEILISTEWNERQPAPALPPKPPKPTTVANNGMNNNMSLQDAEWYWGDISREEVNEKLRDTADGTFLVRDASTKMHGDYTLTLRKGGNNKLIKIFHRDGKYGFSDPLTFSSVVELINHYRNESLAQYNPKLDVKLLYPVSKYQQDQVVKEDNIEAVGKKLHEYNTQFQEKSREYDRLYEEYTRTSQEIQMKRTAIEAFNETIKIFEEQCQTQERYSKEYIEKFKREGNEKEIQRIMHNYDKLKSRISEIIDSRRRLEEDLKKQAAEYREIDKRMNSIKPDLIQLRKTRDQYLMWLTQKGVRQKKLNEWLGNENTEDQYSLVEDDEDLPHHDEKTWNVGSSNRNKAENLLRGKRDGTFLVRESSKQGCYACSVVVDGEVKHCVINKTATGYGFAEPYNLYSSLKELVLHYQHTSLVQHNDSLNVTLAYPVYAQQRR
Source text: (§1) Die inhibitorische Wirkung der erfindungsgemäßen Verbindungen wurde an diversen humanen Serin/ Threonin-, Tyrosin- und Lipidkinasen in enzymatischen Assays getestet. Dabei wurden rekombinante humane Kinasen wie z.B. Erk2, Pl3Kalpha, - beta, -gamma, -delta, p38alpha, p38gamma, Jnk1, Jnk2 und andere eingesetzt, teils als Volllängenkinasen, teils als verkürzte Fragmente - mindestens aber bestehend aus der funktionellen Kinasedomäne. Die käuflichen Kinaseproteine (Proqinase, Upstate) wurden als rekombinante Fusionsproteine mit GST-(Glutathion-S-Transferase) oder His-Tag eingesetzt. Je nach Substrattyp wurden die verschiedenen Kinasereaktionen mittels geeigneter ALPHA™-beads (PerkinElmer) quantifiziert.
(§2) Nachfolgend wird die Substanztestung am Erk-Assay genauer beschrieben. Ausgewählte Testergebnisse der Erk2-, PI3Kalpha-Assays sind unten aufgeführt. […] Anschließend wurde die Kinasereaktion durch Zugabe von 10µl des mit anti-phospho MBP-Antikörpers (320pM, #05-429/ Upstate) präinkubierten ALPHA-Beadmixes (10µg/ml, #6760617/ PerkinElmer) in 25mM Tris, 200mM NaCl, 100mM EDTA und 0.3% BSA abgestoppt und über Nacht stehen gelassen. • b) PI3K-ALPHAs (z.B. PI3Kalpha): Die Testsubstanz, 1ng PI3Kalpha (#14-602, Upstate), 100µM ATP und 20µM PIP2-Substrat (#P4508, Echelon) auf einer 384er Optiplate (PerkinElmer) für 1h in 50mM Hepes, 50mM NaCl, 5mM MgCl2, 0.05% Chaps, 5mM DTT bei pH 7.4 inkubiert. Anschließend wurde die Kinasereaktion durch Zugabe des mit 1nM GST:Grp1-Fusionsprotein (Upstate) und 15nM biotinyliertem PIP3 (#C-39B6/ Echelon) präinkubierten ALPHA-Beadmixes (10µg/ml, #6760603/ PerkinElmer) in 50mM Hepes, 50mM NaCl, 50mM EDTA und 0.1% BSA abgestoppt und über Nacht stehen gelassen.
(§3) Die Fluoreszenzdetektion erfolgte am nächsten Morgen in einem Fusion™alpha-Gerät (PerkinElmer).
(§4) Die Berechnung der %-Inhibitionswerte je Substanz-Konzentration geschah mittels folgender Formel aus den im Fusion™alpha ermittelten Rohdaten: % Kinase Inhibition(Probe) = 100-(100×(MittelwertProbe -Mittelwert0% Kontrolle)/(Mittelwert100% Kontrolle -Mittelwert0% Kontrolle)) [formula]
(§5) Die Kontrollen wurden jeweils 8fach, die Substanzproben jeweils 2fach bestimmt. Die 0%-Kontrolle enthielt entweder kein ATP oder kein Substrat, die 100%-Kontrolle enthielt keine Testsubstanz. Die IC50-Werte wurden mit GraphPadPrism ermittelt.

Erk2 = target: T2, Erk2; experiment: Cell-free kinase assay Erk2-ALPHA (ALPHA technology); format: biochemical, human; conditions: 10µM ATP
T2 construct: teils als Volllängenkinasen, teils als verkürzte Fragmente - mindestens aber bestehend aus der funktionellen Kinasedomäne; purchased Upstate 14-173
T2 sequence (P63085 2-358 limits assumed): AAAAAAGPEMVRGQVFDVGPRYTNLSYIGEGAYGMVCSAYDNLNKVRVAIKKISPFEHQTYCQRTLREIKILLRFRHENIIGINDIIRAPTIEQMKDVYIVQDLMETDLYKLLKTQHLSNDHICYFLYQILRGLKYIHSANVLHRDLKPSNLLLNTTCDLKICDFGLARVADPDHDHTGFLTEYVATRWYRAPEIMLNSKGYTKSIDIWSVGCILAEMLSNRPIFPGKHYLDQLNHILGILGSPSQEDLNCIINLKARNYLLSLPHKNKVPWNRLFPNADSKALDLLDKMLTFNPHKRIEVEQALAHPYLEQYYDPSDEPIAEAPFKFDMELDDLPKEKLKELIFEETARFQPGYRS
Source text: as §1, §2, §3, §4, §5

Hct116 = experiment: Cellular anti-proliferative XTT assay; format: cell-based; conditions: Homo sapiens, HCT-116, 45h incubation
Source text: (§6) Das Prinzip dieses Testes beruht auf der intrazellulären Reduktion des Tetrazolium-Farbstoffes XTT (Natrium 3'-[1-(phenylaminocarbonyl)-3,4-tetrazolium]-bis(4-methoxy-6-nitro)benzensulfonsäure, Sigma) zu einem Formazan-Farbstoff durch mitochondriale Dehydrogenasen. Der Farbstoff wird nur von stoffwechselaktiven Zellen gebildet, seine photometrisch messbare Intensität ist ein quantitativer Indikator für das Vorhandensein lebender Zellen. Die Reduzierung der Farbstoffbildung durch Inkubation der Zellen mit Substanzen dient als Parameter für die anti-proliferative Wirkung.
(§7) Die Tumorzelllinien (ATCC) wurden in 96er Mikrotiterplatten in definierter Zellzahl (5000 Zellen/ Well für BxPC3 und Hct116; 10000 Zellen/ Well für MDA MB468) eingesäat und anschließend über Nacht im Brutschrank bei 37°C, 5% CO2 und 95% Luftfeuchtigkeit inkubiert. Die Testsubstanzen wurden als Stammlösungen (10 mM) in DMSO angesetzt. […] Die Zellplatten wurden dann für 45h im Brutschrank bei 37°C, 5% CO2 und 95% Luftfeuchtigkeit inkubiert.
(§8) Für die Detektionssreaktion wurde das Substrat XTT mit PMS (N-Methyl Dibenzopyrazine Methylsulfat, Sigma) versetzt und zu den Zellen gegeben, sodass eine finale Konzentration von 325µg XTT/ml und 2.5µg PMS/ml resultierte. Es wurde dann für 3h bei 37°C, 95% Luftfeuchte inkubiert. Anschließend konnte das durch zelluläre Dehydrogenasen gebildete Formazan Salz bei einer Adsorption bei 490nm quantifiziert werden.
(§9) Die Auswertung der %-Inhibitions-Werte geschah mittels folgender Formel aus den Werten für die jeweils gemessenen optischen Dichten bei 490nm: % Inhibition Zellproliferation(Probe) = 100-(100×(MittelwertProbe -Mittelwert0% Kontrolle)/(Mittelwert100% Kontrolle -Mittelwert0% Kontrolle)) [formula]
(§10) Die Kontrollen wurden jeweils 8fach, die Substanzproben jeweils 2fach bestimmt. Die 0%-Kontrolle enthielt keine Zellen, die 100%-Kontrolle enthielt keine Testsubstanz. Die EC50-Werte wurden mit GraphPadPrism ermittelt.

MDA-MB468 = experiment: Cellular anti-proliferative XTT assay; format: cell-based; conditions: Homo sapiens, MDA-MB-468, 45h incubation
Source text: as §6, §7, §8, §9, §10

BxPC3 = experiment: Cellular anti-proliferative XTT assay; format: cell-based; conditions: Homo sapiens, BXPC-3, 45h incubation
Source text: as §6, §7, §8, §9, §10

SMILES	IC50 (PI3Kalpha) [µM]	IC50 (Erk2) [µM]	EC50 (Hct116) [µM]	EC50 (MDA-MB468) [µM]	EC50 (BxPC3) [µM]
CCNC(=O)Nc1ccc2ncc(C=CCOC)nc2n1 [Beispiel 6, 1-Ethyl-3-[3-((E)-3-methoxy-propenyl)-pyrido[2,3-b]pyrazin-6-yl]-harnstoff]	21.3	–	–	–	–
CONC(=O)Nc1ccc2ncc(-c3ccccc3)nc2n1 [Beispiel 7, 1-Methoxy-3-(3-phenyl-pyrido[2,3-b]pyrazin-6-yl)-harnstoff]	27.9	0.407	–	–	–
C=CCONC(=O)Nc1ccc2ncc(-c3ccccc3)nc2n1 [Beispiel 8, 1-Allyloxy-3-(3-phenyl-pyrido[2,3-b]pyrazin-6-yl)-harnstoff]	27.2	4.1	–	–	–
CCNC(=O)Nc1ccc2ncc(-c3ccc(OC(=O)OC)cc3)nc2n1 [Beispiel 9, Kohlensäure-4-[6-(3-ethyl-harnstoff)-pyrido[2,3-b]pyrazin-3-yl]-phenyl-methyl-ester]	7.8	0.117	10	15	20
CCNC(=O)Nc1ccc2ncc(-c3ccc(OC(=O)OCCOC)cc3)nc2n1 [Beispiel 10, Kohlensäure-4-[6-(3-ethyl-harnstoff)-pyrido[2,3-b]pyrazin-3-yl]-phenyl-(2-methoxy-ethyl)-ester]	2.6	0.088	5	7	9
CCNC(=O)Nc1ccc2ncc(-c3ccc(OC(=O)N(CC)CC)cc3)nc2n1 [Beispiel 12, Diethyl-carbaminsäure-4-[6-(3-ethyl-harnstoff)-pyrido[2,3-b]pyrazin-3-yl]-phenyl-ester]	3.4	2.8	–	–	–

Next, values leading:

IC50 (PI3Kalpha) [µM]	IC50 (Erk2) [µM]	EC50 (Hct116) [µM]	EC50 (MDA-MB468) [µM]	EC50 (BxPC3) [µM]	SMILES
16.8	5.8	–	–	–	CCNC(=O)Nc1ccc2ncc(C#CC3CC3)nc2n1 [Beispiel 3, 1-(3-Cyclopropylethynyl-pyrido[2,3-b]pyrazin-6-yl)-3-ethyl-harnstoff]
> 31.6	0.27	–	–	–	CCNC(=O)Nc1ccc2ncc(-c3ccc(OC(=O)Oc4ccccc4)cc3)nc2n1 [Beispiel 11, Kohlensäure-4-[6-(3-ethyl-harnstoff)-pyrido[2,3-b]pyrazin-3-yl]-phenyl-phenyl-ester]
> 31.6	–	–	–	–	CCNC(=O)Nc1ccc2ncc(-c3ccc(OC(=O)C=Cc4ccccc4)cc3)nc2n1 [Beispiel 13, (E)-3-Phenyl-acrylsäure-4-[6-(3-ethyl-harnstoff)-pyrido[2,3-b]pyrazin-3-yl]-phenyl-ester]
